Assays:
[1] = system: safety pharmacology relevant proteins (GPCRs, ion channels and transporters); experiment: Selectivity panel of safety pharmacology assays; conditions: 10 µM
[2] = system: AR signaling pathway genes in VCaP tumor samples; experiment: Ex vivo gene expression in VCaP xenografts; set-up: species or system mice; conditions: 52 days of treatment
Method: (§1) Total RNA was isolated using RNeasy-Plus Mini kit (Qiagen, Hilden, Germany). RNA (1 μg) was reverse transcribed using SuperScript III First-Strand Synthesis SuperMix (Life Technologies) and the generated cDNA was analyzed with commercial primers (Supplementary Materials Table S1) by qRT-PCR using TaqMan Fast Advanced Master Mix (Life Technologies). For the RNA-seq study, ZR-75-1, BT474, PANC-1, MiaPaCa-2, 22RV1, JMSU-1, DLD-1, SW1463, LoVo and G401 cells were treated with 5 µM BAY-155 or DMSO for 48 h prior to RNA extraction. After 48 h of 5 µM BAY-155 or DMSO treatment, MCF7, VCaP and LNCaP cells were stimulated for further 12 h with 0.1 nM of E2 (ß-Estradiol) or 1 nM R1881, respectively. MCF7, VCaP and LNCaP cells were cultured in starvation medium (containing 5 µM BAY-155 or DMSO) 6 h before stimulation. RNA was isolated using RNeasy-Plus Mini kit (Qiagen). The purified RNA was used for library preparation (Illumina, San Diego, CA, USA. TruSeq Stranded mRNA Kit) and the generated libraries were sequenced (Illumina, HiSeq2500 HTv4, SR, dual-indexing, 50 cycles).
(§2) Tumors were harvested, dissociated and total RNA was extracted using the TissueLyser (Qiagen, Hilden, Germany) together with RNeasy-Plus Mini kit according to the manufacturer protocol.

MOLM-13 xenograft = MOLM-13 xenograft efficacy; assay type: in vivo, mice; conditions: p.o.
Method: (§3) Tumor cells were injected subcutaneously into the flanks of 6- to 9-week old animals. Efficacy studies in xenograft models were performed at Bayer or EPO GmbH (Berlin-Buch, Germany) using NMRI nu/nu, SCID, BALB/c Nude female mice or SCID male mice (VCaP tumors). All animal studies were conducted in accordance with the animal welfare laws and were approved by the State Office for Health and Social Affairs Berlin (LAGeSo). Experiments were run under the animal license B3600a0007. Compound treatment started at a predefined tumor size or burden or at a predefined day after cell inoculation. BAY-155 was administered orally (p.o.) at various doses and regorafenib, tamoxifen and enzalutamide (resuspended in PEG400/H2O 6/4 or PEG400/EtOH 9/1) were used as control treatment for RKO, MCF7 and VCaP xenografts, respectively. Subcutaneous tumor volumes were determined by caliper measurement.

[3] = system: T1, menin protein levels in VCaP cells; experiment: Western blot of menin protein level; assay type: cell-based, human; conditions: Western blot
T1 construct: endogenous in cells; host or cells: VCaP

[4] = cited from earlier work
[5] = cited from earlier work; remark: listed apart in the source
LNCaP cells = experiment: RNA-seq after R1881 stimulation, LNCaP; assay type: cell-based
Method: as §1
(§4) RNA-seq reads were aligned to hg38 using STAR aligner. Protein-coding genes with more than 10 reads in more than three samples were used for the analysis (total samples N = 86; genes N = 13,003). DESeq2 was used to find genes differentially expressed upon treatment by the menin inhibitor in each cell line compared to DMSO or hormonal treatment (for MCF-7, LNCaP and VCaP cell lines). […] GSEA analysis was run on the pre-ranked list based on logFC in prostate (VCaP and LNCaP) and breast (MCF7) cell lines. Data are available at GEO under accession number GSE136272.

CYP 3A4 = CYP 3A4 (Homo sapiens, UniProt P08684); conditions: cited from earlier work
CYP 2C8 = CYP 2C8 (Homo sapiens, UniProt P10632); conditions: cited from earlier work
ZR-75-1 cells = experiment: RNA-seq differential gene expression, ZR-75-1; assay type: cell-based; conditions: ZR-75-1, 5 µM, 48 h
Method: as §1
(§5) RNA-seq reads were aligned to hg38 using STAR aligner. Protein-coding genes with more than 10 reads in more than three samples were used for the analysis (total samples N = 86; genes N = 13,003). […]

VCaP cells = experiment: RNA-seq after R1881 stimulation, VCaP; assay type: cell-based, human
Method: as §1, §4

CYP 2D6 = CYP 2D6 (Homo sapiens, UniProt P10635); conditions: cited from earlier work
[6] = system: 401 cancer cell lines derived from 28 tissues of origin; experiment: Cell line proliferation panel (OmniScreen, 401 cancer cell lines); assay type: cell-based
Method: The characterization of proliferation effects in 401 cancer cell lines was performed on the OmniScreen™ platform (CrownBio). Briefly, cells were seeded at the appropriate density for a five-day growth period and treated with BAY-155 (10 µM maximal concentration with 3.16-fold serial dilutions with 9 dose levels) or left untreated as control. For determination of viability the CellTiter-Glo® Luminescent Cell Viability Assay (Promega, Madison, WI, USA) was used. For absolute IC50 determination, a dose-response curve was fitted using a nonlinear regression model with a sigmoidal dose-response using GraphPad Prism 5.0. The surviving rate (%) = (LumTest-LumMedium control)/(LumNon-treated-LumMedium control) × 100%.

[7] = system: ER signaling pathway genes in MCF7 tumor samples; experiment: Ex vivo gene expression in MCF7 xenografts; set-up: species or system mice; conditions: 27 days of treatment
Method: as §1, §2

PANC-1 cells = experiment: RNA-seq differential gene expression, PANC-1; assay type: cell-based; conditions: PANC-1, 5 µM, 48 h
Method: as §1, §5

MCF7 xenograft = MCF7 xenograft efficacy; assay type: in vivo, mice
Method: as §3

MCF7 cells = experiment: RNA-seq after E2 stimulation, MCF7; assay type: cell-based, human
Method: as §1, §4

MOLM-13 cells = experiment: Proliferation inhibition, MOLM-13; assay type: cell-based, human

CYP 2D6, sequence (P10635 whole entry): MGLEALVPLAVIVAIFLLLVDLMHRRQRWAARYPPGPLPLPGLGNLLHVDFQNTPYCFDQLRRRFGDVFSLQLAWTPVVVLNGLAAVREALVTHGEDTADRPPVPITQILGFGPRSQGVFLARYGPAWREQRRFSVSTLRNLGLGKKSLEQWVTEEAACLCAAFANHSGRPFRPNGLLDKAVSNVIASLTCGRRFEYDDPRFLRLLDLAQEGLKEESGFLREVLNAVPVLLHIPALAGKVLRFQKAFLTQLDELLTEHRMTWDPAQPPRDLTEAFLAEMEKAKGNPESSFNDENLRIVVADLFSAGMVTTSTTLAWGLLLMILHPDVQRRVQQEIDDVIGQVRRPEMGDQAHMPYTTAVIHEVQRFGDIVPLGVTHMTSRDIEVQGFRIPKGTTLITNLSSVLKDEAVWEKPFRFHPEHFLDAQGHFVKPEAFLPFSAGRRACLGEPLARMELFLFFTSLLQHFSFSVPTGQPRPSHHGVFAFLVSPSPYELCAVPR
CYP 2C8, sequence (P10632 whole entry): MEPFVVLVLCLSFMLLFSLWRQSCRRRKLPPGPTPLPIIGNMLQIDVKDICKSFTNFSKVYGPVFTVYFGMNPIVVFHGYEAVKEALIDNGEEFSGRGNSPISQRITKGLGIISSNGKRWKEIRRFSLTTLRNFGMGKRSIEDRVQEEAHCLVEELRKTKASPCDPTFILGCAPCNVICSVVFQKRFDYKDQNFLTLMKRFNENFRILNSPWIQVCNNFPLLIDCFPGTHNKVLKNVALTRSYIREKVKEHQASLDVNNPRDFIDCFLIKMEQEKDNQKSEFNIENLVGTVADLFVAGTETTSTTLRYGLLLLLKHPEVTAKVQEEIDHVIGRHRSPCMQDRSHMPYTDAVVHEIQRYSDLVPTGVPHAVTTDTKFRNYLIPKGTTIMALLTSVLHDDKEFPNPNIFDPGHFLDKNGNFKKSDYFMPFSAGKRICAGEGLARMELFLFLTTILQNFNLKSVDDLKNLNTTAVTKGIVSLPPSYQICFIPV
CYP 3A4, sequence (P08684 whole entry): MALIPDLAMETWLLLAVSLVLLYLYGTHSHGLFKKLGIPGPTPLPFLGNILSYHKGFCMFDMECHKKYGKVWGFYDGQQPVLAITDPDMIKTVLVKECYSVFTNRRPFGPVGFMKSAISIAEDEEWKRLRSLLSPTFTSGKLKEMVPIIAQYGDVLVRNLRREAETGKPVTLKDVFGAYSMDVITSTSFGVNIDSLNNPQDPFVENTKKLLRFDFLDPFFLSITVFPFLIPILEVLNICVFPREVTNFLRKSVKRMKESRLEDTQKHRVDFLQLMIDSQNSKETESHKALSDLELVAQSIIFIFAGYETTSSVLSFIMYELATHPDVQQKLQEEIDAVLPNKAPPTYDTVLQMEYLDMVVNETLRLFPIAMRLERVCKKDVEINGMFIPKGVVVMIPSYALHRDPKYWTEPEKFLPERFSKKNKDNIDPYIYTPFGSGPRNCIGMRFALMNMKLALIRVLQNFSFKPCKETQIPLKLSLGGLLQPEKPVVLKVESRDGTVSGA

Cc1c(CN2CCC3(CC2)CN(c2ncnc4sc(CC(F)(F)F)cc24)C3)ccc2c1cc(C#N)n2CC(N)=O [BAY-155]
number of tested proteins inhibited by ≥ 50% [1]: 7 | cases in which an IC50 value could be reached ([1]; of 77 targets): 7/77 | FKBP5 and TMPRSS2 expression ex vivo [2]: no significant changes | tumor volume (MOLM-13 xenograft): dose-dependent inhibition of tumor volume | tumor weight (MOLM-13 xenograft): significant reduction of tumor weight | menin protein levels [3]: reduce menin protein levels in a time- and concentration-dependent manner | CLblood (metabolic stability in rat hepatocytes, as worded in text) [4]: 18.3 mL/min/kg | Caco2 permeability Papp(A-B) ([5]; Caco-2, pH 7.2): 2.64 ×10⁻⁶ cm/s | Caco2 permeability efflux ratio ([5]; Caco-2): 6.4 | GSEA of androgen-regulated gene sets (LNCaP cells): significant reversal of androgen-induced gene expression changes | genes down-regulated by androgen stimulation that were reversed (LNCaP cells; 5 µM, R1881): 141 genes | genes up-regulated by androgen stimulation that were reversed (LNCaP cells; 5 µM, R1881): 24 genes | IC50 (CYP 3A4): > 20 µM | IC50 (CYP 2C8): > 20 µM | number of differentially expressed genes (ZR-75-1 cells): 10 genes | GSEA of androgen-regulated gene sets (VCaP cells): significant reversal of androgen-induced gene expression changes | genes down-regulated by androgen stimulation that were elevated (VCaP cells; 5 µM, R1881): 182 genes | genes up-regulated by androgen stimulation that were repressed (VCaP cells; 5 µM, R1881): 36 genes | IC50 (CYP 2D6): > 20 µM | proliferation of cancer models originating from breast, prostate or bone [6]: not affected | sensitivity of all tested MLL-AF4, MLL-AF9 and MLL-TD leukemia cell lines [6]: sensitive | IC50 ([6]; 120 h, read-out: IC50 in the vast majority of tested cell line models): > 10 µM | sensitivity of KYSE-150 and RKO cells in the in vitro screen ([6]; IC50 in similar range to MV4;11 and MOLM-13): highly sensitive | share of liver-derived models with reduced proliferation ([6]; n = 33, IC50 below 5 µM taken as significant): 30% | share of blood cell-derived models with reduced proliferation ([6]; n = 73, IC50 below 5 µM taken as significant): 26% | EGR3, GREB1 and PGR1 expression ex vivo [7]: no significant effects | number of differentially expressed genes (PANC-1 cells): 346 genes | tumor volume and tumor weight (MCF7 xenograft): no significant effects | GSEA of estradiol (E2) up- and down-regulated gene sets (MCF7 cells; MCF7): slight reverse regulation | E2 down-regulated genes significantly changed (MCF7 cells; MCF7, 5 µM, E2): 13 genes | E2 up-regulated genes significantly changed (MCF7 cells; MCF7, 5 µM, E2): 26 genes | fold improved proliferation inhibition vs MI-503 (MOLM-13 cells): 6.3 fold
